Reference: US10301357B2, “Therapeutics for the induction of endogenous steroidogenesis and methods associated with their identification” (THE ROYAL INSTITUTION FOR THE ADVANCEMENT OF …, priority 2013, dated 2019)
“Also recorded” adds a separate entry of the source. Square brackets hold non-standard residues; d marks the D form. Peptide text beside a SMILES is read from it. dPhe(4-Cl) = N[C@H](Cc1ccc(Cl)cc1)C(=O)O; d2Nal = N[C@H](Cc1ccc2ccccc2c1)C(=O)O; dCit = NC(=O)NCCC[C@@H](N)C(=O)O; d3Pal = N[C@H](Cc1cccnc1)C(=O)O

What was measured:
Sprague-Dawley rats = assay: FGIN-1-27 bolus intratesticular injection, T levels after 2 hrs; type: in vivo, rat; settings: for intratesticular T levels / plasma T levels: 8.5 μg bolus, 2 hrs
Experimental: (§1) Animals studies. Animals were handled according to protocols approved by the McGill University Animal Care and Use Committees. 60- to 64-day-old male Sprague-Dawley rats were purchased from Charles River, Senneville, QC. Rats were provided standard diets and tap water ad libitum and were maintained in controlled conditions (24° C., 12-h light, 12-h dark schedule). Animals were euthanized, and the testes were either immediately used for organ culture or intratesticular fluid collection, or testes and adrenal glands were snap-frozen for sectioning. Bolus injections with water or indicated doses of TV peptides were performed after administering isofluorane anesthesia. Rats were injected with either water or the indicated dose of TV fusion peptide. When FGIN-1-27 (Sigma-Aldrich, St. Louis, Mo.) was used, 8.5 μg in 50 μl (390 μM) of the compound in 1% DMSO solution containing Tween-20™ was injected into one of the testes of 68-72 day old Sprague-Dawley rats. Animals were incubated in standard conditions for 2 hrs. Surgeries were performed on 60- to 64-day-old rats bolus injection of water or TV peptides. Alzet mini-osmotic pumps releasing 75 ng of filled with water or a TV peptide or water over a course of 24 hrs was surgically implanted in the abdomen. The pumps were connected to a polyethylene catheter tubing (Alzet) and directed to the injected testis. The pump released 75 ng TV peptide to the testis over a course of 24 hrs at the rate of 1 μl/hour. GnRH antagonist, Cetrorelix™ (Sigma Aldrich) was injected into 59-day-old rats intraperitoneally (i.p.) at 0.4 mg/animal/day for 0-4 days (Horvath et al. 2004). Animal dissection was performed after CO2 anesthesia. Cardiac puncture was used for blood collection, and further centrifugation yielded serum separation. Testes were dissected and either decapsulated for intratesticular fluid collection or snap-frozen for sectioning.
To further assess the link between VDAC1 and TSPO function in vivo, the acute effect of TVS167 was compared to that of a well characterized high affinity TSPO drug ligand, N,N-dihexyl-2-(4-fluorophenyl)indole-3-acetamide (FGIN-1-27) (Perheentupa et al. 2009), in the absence of LH signaling. Sprague-Dawley rats of 68-72 days old were given an i.p. injected of either H2O or 0.4 mg Cetrorelix™ for 0-4 days. On day 4, a bolus intratesticular injection of 8.5 μg FGIN-1-27 or its solvent (control) was given to one testis per animal. To assess the acute effect of this TSPO drug ligand on steroidogenesis intratesticular and circulating T levels were measured after 2 hrs.

[1] = tested on: adult Sprague-Dawley rats; assay: Cetrorelix i.p. injection, suppression of T and LH; type: in vivo, rat
Experimental: as §1, with “The pump released 75 ng TV peptide to the testis over a course of 24 hrs at the rate of 1 μl/hour. GnRH antagonist, Cetrorelix™ (Sigma Aldrich) was injected into 59-day-old rats intraperitoneally (i.p.) at 0.4 mg/animal/day for 0-4 days (Horvath et al. 2004). Animal dissection was performed after CO2 anesthesia. Cardiac puncture was used for blood collection, and further centrifugation yielded serum separation. Testes were dissected and either decapsulated for intratesticular fluid collection or snap-frozen for sectioning.” left out

[2] = tested on: MA-10 mouse Leydig tumor cells; assay: Progesterone production by MA-10 cells after 8-Br-cAMP (RIA); type: cell-based; settings: 10 μM 19-Atriol with TVS167, 8-Br-cAMP 120 min
Experimental: Cell culture, treatments, and steroid measurement. MA-10 mouse Leydig tumor cells were maintained in DMEM/Ham's nutrient mixture F12 (Gibco, Burlington, ON) supplemented with 5% fetal bovine serum, 2.5% hoarse serum, and 1% penicillin and streptomycin at 37° C. and 3.7% CO2. Cells were incubated in serum-free cell culture media supplemented with 1 mM 8-Bromo-cAMP (Enzo Biosciences, Farmingdale, N.Y.) or […] (50 ng/ml) hCG for 15, 30, 60, and 120 min or as indicated. Human NCL-H295R cells were maintained in DMEM/F12 media supplemented with 2.5% Ultroser G (Pall Biospera, Mississauga, ON), 1% penicillin/streptomycin (Invitrogen, Carlsbad, Calif.), and 1% ITS+ Premix (BD Biosciences, Franklin Lakes, N.J.) in a humidified chamber at 37° C. and 5% CO2.
Experiments involving the TV peptides included 1×10^3 MA-10 or NCL-H295R cells, which were initially cultured for 24 hrs. Serum-free media were supplemented with 250 nM TV fusion peptides, and cells were incubated for 90 min after optimization. […]
Progesterone or testosterone levels were measured with specific RIAs in triplicate using commercial anti-sera from rabbit and sheep, respectively (MP Biomedicals, Santa Ana, Calif.). Protein levels in MA-10 cell lysates were determined with the Bradford dye assay (Bio-Rad). LH and corticosterone levels were measured with rat-specific ELISA kits (CUSABIO, Wuhan, China).

## CCCCCCN(CCCCCC)C(=O)Cc1c(-c2ccc(F)cc2)[nH]c2ccccc12 [FGIN-1-27, N,N-dihexyl-2-(4-fluorophenyl)indole-3-acetamide]
Sprague-Dawley rats; Cetrorelix-treated rats
  intratesticular T levels: significant increase
  plasma T levels: increased
Sprague-Dawley rats; control (H2O i.p.) rats
  intratesticular T levels: significant increase
  plasma T levels: increased only in the Cetrorelix-treated animals
Sprague-Dawley rats; control and Cetrorelix-treated rats
  acute T formation in vivo compared with TVS167: to a lesser extent that TVS167

## CC(=O)N[C@H](Cc1ccc2ccccc2c1)C(=O)N[C@H](Cc1ccc(Cl)cc1)C(=O)N[C@H](Cc1cccnc1)C(=O)N[C@@H](CO)C(=O)N[C@@H](Cc1ccc(O)cc1)C(=O)N[C@H](CCCNC(N)=O)C(=O)N[C@@H](CC(C)C)C(=O)N[C@@H](CCCNC(=N)N)C(=O)N1CCC[C@H]1C(=O)N[C@H](C)C(N)=O [Cetrorelix] (Ac-[d2Nal][dPhe(4-Cl)][d3Pal]SY[dCit]LRP[dA]-NH2)
[1]; 0.4 mg/day i.p. for four days
  T levels in testes and serum: completely suppressed; also recorded: blocked
[1]; adult rats
  LH release: blocked LH release

## C[C@]12CC[C@H]3[C@@H](CC=C4C[C@@H](O)CC[C@@]43CO)[C@@H]1CC[C@@H]2O [19-Atriol]
[2]
  effect on TVS167-stimulated steroid formation: stimulatory effect of TVS167 on steroid formation was blocked
